# Measured values as given in patent publication US20100210559A1, “TRAP-14 AS A THERAPEUTIC AGENT” (priority 2007, published 2010).
# No end group written: not given here.
# System: drug-resistant Mycobacterium tuberculosis
# Details: drug-resistant Mycobacterium tuberculosis (PAS, streptomycin, INH); peptide 10 micrograms per ml; seven days
substance,measurement,value
SFLLRNPNDKYEPF-OH [TRAP-14],% inhibition,0.0%
